A word on the Kd: it is a measure of binding affinity in units of concentration.

The target in assay [1] is sc-apCC-4-SN38-1. The assay is described as follows: fluorescence saturation binding. Details: species or system synthetic construct.
Assay [2] addresses sc-apCC-6-NR (S, specific binder). The assay is described as follows: fluorescence saturation binding. To be noted: PBS pH 7.4, 10% v/v MeCN, 0.5 μM ligand, 0-60 μM protein. Details: species or system synthetic construct.
In a further assay the target is sc-apCC-4-NR-1. The assay is described as follows: fluorescence intensity saturation binding. Details: species or system synthetic construct. To be noted: PBS pH 7.4, 10% v/v MeCN, 0.5 μM Nile red, 0-60 μM protein.
Assay [3] concerns the target sc-apCC-6-DPH-NR (P, promiscuous binder). The assay is described as follows: fluorescence saturation binding. Further details: species or system synthetic construct. To be noted: PBS pH 7.4, 10% v/v MeCN, 0.5 μM ligand, 0-60 μM protein.
The target in assay [4] is sc-apCC-4-DPH (highest-affinity DPH binder of Fig. 2; sc-apCC-4-DPH-1 or sc-apCC-4-DPH-2). The assay is described as follows: fluorescence intensity saturation binding. Details: species or system synthetic construct. To be noted: PBS pH 7.4, 10% v/v MeCN, 0.5 μM DPH, 0-60 μM protein.
For the next assay, the target named is sc-apCC-4-LMF-1. The settings on record: PBS pH 7.4, 10% v/v DMSO, 1 μM lumiflavin, 0-480 μM protein.
The target in assay [5] is sc-apCC-4-SN38-1. The assay is described as follows: fluorescence saturation binding. Details: species or system synthetic construct. To be noted: ABS pH 4, 10% v/v DMSO, 1 μM SN38, 0-480 μM protein.

The structures appear in SMILES notation. Where two headings read alike, the source gives them in different places.

For `CCN(CC)c1ccc2nc3c4ccccc4c(=O)cc-3oc2c1` [Nile red], the Kd at sc-apCC-4-SN38-1 [1] (read-out: KD,Nile Red) was approximately 200 nM; in assay [2], 110 ± 40 nM; at sc-apCC-4-NR-1, 2400 ± 100 nM; in assay [3], 2200 ± 200 nM.
Turning to `C(=CC=Cc1ccccc1)C=Cc1ccccc1` [DPH, 1,6-diphenyl-1,3,5-hexatriene], the dissociation constant (Kd) in assay [2] is more than 20000 nM; in assay [4], 1200 ± 100 nM; in assay [3], 1900 ± 200 nM.
In the case of `CCN(CC)c1ccc2nc3c4ccccc4c(=N)cc-3oc2c1` [Nile blue], at sc-apCC-4-SN38-1 [1] (read-out: KD,Nile blue), the equilibrium dissociation constant (Kd) is approximately 400 nM.
In turn, `Cc1cc2nc3c(=O)[nH]c(=O)nc-3n(C)c2cc1C` [lumiflavin] gave a Kd on sc-apCC-4-LMF-1 of more than 50000 nM.
The compound `CCc1c2c(nc3ccc(O)cc13)-c1cc3c(c(=O)n1C2)COC(=O)[C@]3(O)CC` [SN38] displayed a Kd on sc-apCC-4-SN38-1 [5] of 7800 ± 600 nM.
